A melting point compilation (Tetko et al.)

For `CNS(=O)(=O)c1ccc(C)cc1`, which melting point is on record?
The melting point was 78.5 °C.

With `Cc1occc1C(=O)Nc1ccccc1` as the compound, how does the melting point read?
Its melting point is 110 °C.

For `CC(=O)OC(C(=O)c1ccccc1)c1ccccc1` (stereo not drawn), which melting point is on record?
The melting point was 82 °C.

With `CC(=O)/C=C/c1ccc([N+](=O)[O-])o1` as the compound, how does the melting point read?
The melting point was 192 to 195 °C.

For `O=C(Nc1ccc([N+](=O)[O-])cc1[N+](=O)[O-])C(C(F)(F)F)(C(F)(F)F)C(F)(F)F`, which melting point is on record?
Its melting point is 164 °C.

For `O=C1C=CC(=O)[C@@H]2Cc3ccccc3C[C@H]12`, which melting point is on record?
The melting point was 127 to 128 °C.

Which melting point does the source give for `O=[N+]([O-])CC(Nc1ccccc1)c1cccc(C(C[N+](=O)[O-])Nc2ccccc2)c1` (stereo not drawn) here?
The melting point was 127 °C.

With `Cc1cccc(N/N=C2/C(=O)N(c3ccccc3)N=C2C(F)(F)F)c1` as the compound, how does the melting point read?
Its melting point is 161 °C.

Which melting point does the source give for `COC(=O)c1ccc(N)nc1` here?
The melting point was 159 to 160 °C.

Which melting point does the source give for `CC1CC(=Cc2ccccc2)C(=O)C(=Cc2ccccc2)C1` (stereo not drawn) here?
The melting point was 100 to 101 °C.

For `COC(=O)CC1CCC(NC(=O)OC(C)(C)C)CC1` (stereo not drawn), which melting point is on record?
Its melting point is 81 °C.

For `O=C1OC(c2ccc([N+](=O)[O-])cc2)=NC1=Cc1ccccc1`, which melting point is on record?
Its melting point is 236 °C.

For `O=C1c2ccccc2C(=O)C1C(=O)C(c1ccccc1)c1ccccc1`, which melting point is on record?
The melting point was 146 °C.

For `O=C1NN=C(C(F)(F)F)C1=NNc1cc(-c2ccccc2)n[nH]1`, which melting point is on record?
The melting point was 271 °C.

Which melting point does the source give for `Cc1ccc(C)n1-c1cc([N+](=O)[O-])ccc1F` here?
Its melting point is 56 to 58 °C.

For `CC(C)(C)c1cc(C(C)(C)C)n(-c2ccc(N)cc2)n1`, which melting point is on record?
Its melting point is 205 to 207 °C.

With `O=C(Cl)c1ccc(Oc2cc(Cl)cc(Cl)c2)o1` as the compound, how does the melting point read?
Its melting point is 60 to 62 °C.

For `N#Cc1cnn(-c2ccccc2)c1-n1cccc1`, which melting point is on record?
The melting point was 81 to 83 °C.

With `O=Cc1c[nH]nc1-c1ccccc1` as the compound, how does the melting point read?
The melting point was 146 to 148 °C.

With `COC1=C/C(=N\O)C2(C)CCC1C2(C)C` (stereo not drawn) as the compound, how does the melting point read?
Its melting point is 185 °C.

For `NC(=S)COc1ccccc1Cl`, which melting point is on record?
The melting point was 116 to 117 °C.

Which melting point does the source give for `CC1(c2ccccc2)CCOCO1` (stereo not drawn) here?
Its melting point is 37.5 °C.

With `CC(=C(C#N)C#N)c1ccc(Cl)cc1` as the compound, how does the melting point read?
Its melting point is 93 °C.

With `CC(CCC(=O)O)C1CCC2C3C(=O)CC4CCCCC4(C)C3CC(=O)C12C` (stereo not drawn) as the compound, how does the melting point read?
The melting point was 176 °C.

For `Cc1nc2ccc(Br)cn2c(=O)c1C(=O)c1ccccc1`, which melting point is on record?
Its melting point is 245 to 247 °C.

With `O=Cc1ccc(O)c(C(=O)O)c1` as the compound, how does the melting point read?
Its melting point is 250 °C.

With `O=c1cc(-c2ccccc2)oc2ccc(Cl)cc12` as the compound, how does the melting point read?
Its melting point is 183 to 187 °C.

For `c1ccc2c(c1)OCCOCCOCCOCCOc1ccccc1OCCO2`, which melting point is on record?
The melting point was 48 to 52 °C.

Which melting point does the source give for `NNC(=O)c1ccc(Cl)cc1` here?
Its melting point is 164 °C.

With `CC=C1CCC2C3CCC4CC(OC(C)=O)CCC4(C)C3CCC12C` (stereo not drawn) as the compound, how does the melting point read?
The melting point was 118 to 120 °C.

Which melting point does the source give for `CC(=O)c1cc2cc(Br)ccc2o1` here?
The melting point was 111 °C.

With `O=c1oc2c3c4c(cc2c2c1CCC2)CCCN4CCC3` as the compound, how does the melting point read?
Its melting point is 149 °C.

With `Cc1cccc(CCC(=O)O)c1` as the compound, how does the melting point read?
Its melting point is 41 to 44 °C.

Which melting point does the source give for `CN(C)c1ccc(C=C2C=C(c3ccccc3)OC(c3ccccc3)=C2)cc1` here?
Its melting point is 181 °C.

With `CCOP(=S)(OCC)Oc1cc(C)nc(N(CC)CC)n1` as the compound, how does the melting point read?
The melting point was 15 °C.

Which melting point does the source give for `C#CCCC#C` here?
The melting point was -6 °C.

For `OCc1cn2ccsc2n1`, which melting point is on record?
The melting point was 154 to 155 °C.

With `CCCCC(CC)COC(=O)c1ccc(C(=O)OCC(CC)CCCC)cc1` (stereo not drawn) as the compound, how does the melting point read?
The melting point was 30 to 34 °C.

With `N#CC1=C(N)Oc2[nH]nc(C(F)(F)F)c2C1c1ccccc1Cl` (stereo not drawn) as the compound, how does the melting point read?
The melting point was 181 °C.

Which melting point does the source give for `COc1ccccc1OP(=O)(Oc1ccccc1OC)Oc1ccccc1OC` here?
The melting point was 91 °C.

For `OCc1cccc(Cl)c1Cl`, which melting point is on record?
The melting point was 88 to 94 °C.

For `O=Cc1ccc(SCc2ccco2)c([N+](=O)[O-])c1`, which melting point is on record?
Its melting point is 153 to 154 °C.

For `Cn1c(=O)c(C2=NNC(=O)C2=NNc2ccncc2)c(O)c2ccccc21`, which melting point is on record?
The melting point was 294 °C.

For `COC(=O)C1=C(C)NC(C)=C(C(=O)On2nnc3ccccc32)[C@H]1c1ccc([N+](=O)[O-])cc1`, which melting point is on record?
The melting point was 217 °C.

With `Sc1nc2cc(Cl)ccc2[nH]1` as the compound, how does the melting point read?
The melting point was 300 °C.

For `NC(=NO)c1cccc(C(=O)O)c1`, which melting point is on record?
The melting point was 196 to 197 °C.

Which melting point does the source give for `S=C=Nc1c(Cl)cc(Cl)cc1Cl` here?
The melting point was 74 to 76 °C.

Which melting point does the source give for `C=CC1CC=CCC1` (stereo not drawn) here?
Its melting point is -109 °C.

With `Nc1c(C=NNc2ccccc2)ccc2c1C(=O)c1ccccc1C2=O` as the compound, how does the melting point read?
The melting point was 209 to 211 °C.

With `CNCc1nn(C)c2ccccc12` as the compound, how does the melting point read?
Its melting point is 37 to 40 °C.

With `O=C(/C(=N\Nc1cccc(O)c1)S(=O)(=O)c1ccccc1)c1ccc(Cl)cc1` as the compound, how does the melting point read?
Its melting point is 125 °C.

With `O=C(O)CNC(=O)OCc1ccccc1` as the compound, how does the melting point read?
The melting point was 121 °C.

With `Cc1cc(=O)oc2cc(OP(=O)(O)O)ccc12` as the compound, how does the melting point read?
The melting point was 210 °C.

Which melting point does the source give for `NC(=S)Nc1cc(C(F)(F)F)cc(C(F)(F)F)c1` here?
The melting point was 166 to 168 °C.

For `O=C1/C(=C/c2ccccc2O)SC(=S)N1CN1CCCCC1`, which melting point is on record?
The melting point was 166 °C.

For `CC1(C)Cc2cccc(C=O)c2O1`, which melting point is on record?
The melting point was 81 to 83 °C.

Which melting point does the source give for `CC(=O)[C@H]1CC[C@H]2[C@@H]3CC=C4C[C@@H](OC(=O)CCC(=O)O)CC[C@]4(C)[C@H]3CC[C@]12C` here?
Its melting point is 180 °C.

With `O=C(C1=NOC2C(=O)N(c3ccccc3[N+](=O)[O-])C(=O)C12)c1ccco1` (stereo not drawn) as the compound, how does the melting point read?
The melting point was 209 °C.

With `COc1ccccc1Oc1ccc(S(=O)(=O)Cl)cc1` as the compound, how does the melting point read?
The melting point was 54 to 56 °C.

With `CCCC(C)S` (stereo not drawn) as the compound, how does the melting point read?
Its melting point is -169 °C.

Which melting point does the source give for `CCC(=O)OC1CCC2(C)C(=CCC3C2CCC2(C)C(OC(=O)CC)CCC32)C1` (stereo not drawn) here?
Its melting point is 113 °C.

With `O=Cc1csc(-c2cccc(Cl)c2)n1` as the compound, how does the melting point read?
Its melting point is 103 to 104 °C.

Which melting point does the source give for `O=C1c2ccccc2S(=O)(=O)N1Br` here?
Its melting point is 160 to 170 °C.

For `O=C=Nc1cc([N+](=O)[O-])ccc1Cl`, which melting point is on record?
Its melting point is 94 °C.

For `CC(=O)c1ccc(NC(=O)CCl)cc1`, which melting point is on record?
The melting point was 150 to 151 °C.

For `CC1=C(C(=O)OCc2ccccc2)C(c2ccco2)NC(=S)N1` (stereo not drawn), which melting point is on record?
Its melting point is 164 °C.

Which melting point does the source give for `CCO[Si](CCCNC(=O)c1ccc([N+](=O)[O-])cc1)(OCC)OCC` here?
Its melting point is 55 °C.

Which melting point does the source give for `CC1(C)CC(=O)CC(C)(C)N1` here?
Its melting point is 36 °C.

With `C[C@]12CCC(=O)C[C@H]1CC[C@H]1[C@H]3CCC(=O)[C@@]3(C)CC[C@@H]12` as the compound, how does the melting point read?
The melting point was 179 to 180 °C.

Which melting point does the source give for `Cc1noc(N)c1[N+](=O)[O-]` here?
Its melting point is 154 to 156 °C.

With `C/C(=C\C(=O)c1ccc(F)cc1)c1ccc(F)cc1` as the compound, how does the melting point read?
The melting point was 51 °C.

With `c1ccc2c(c1)CCc1ccccc1C2` as the compound, how does the melting point read?
Its melting point is 72 to 76 °C.

With `CCc1ccc(CCO)nc1` as the compound, how does the melting point read?
The melting point was 42 °C.

Which melting point does the source give for `Clc1ccc2cccc(Cl)c2c1` here?
The melting point was 63.5 °C.

With `Cc1ccc(NC(N)=O)cc1` as the compound, how does the melting point read?
Its melting point is 178 to 181 °C.

Which melting point does the source give for `O=C(Cn1c(=O)sc2ccc(Cl)cc21)N1CCN(CCO)CC1` here?
Its melting point is 160 °C.

With `CCCCCCOC(=O)CCC` as the compound, how does the melting point read?
Its melting point is -78 °C.

Which melting point does the source give for `OCCC1CCNCC1` here?
The melting point was 132 °C.

Which melting point does the source give for `C/C(=N/NC(N)=O)C(C)Cc1ccccc1` (stereo not drawn) here?
Its melting point is 112 °C.

With `CC12CCC(=O)C=C1CCC1C2CCC2(C)C(OCc3ccccc3)CCC12` (stereo not drawn) as the compound, how does the melting point read?
Its melting point is 198 to 199 °C.

For `COC(=O)c1ccc(C=CC(=O)c2ccccc2)cc1`, which melting point is on record?
Its melting point is 119 to 120 °C.

For `NC(=O)c1sc(Nc2ccccc2)nc1N`, which melting point is on record?
The melting point was 205 °C.

With `O=C(O)CNC(CO)(CO)CO` as the compound, how does the melting point read?
The melting point was 187 °C.

With `O=C(O)c1ccc2[nH]c3c(c2c1)CCCC3` as the compound, how does the melting point read?
Its melting point is 266 to 268 °C.

Which melting point does the source give for `O=C(c1cccc2ccccc12)C(Br)c1ccccc1` (stereo not drawn) here?
Its melting point is 64 °C.

With `O=[N+]([O-])c1ccc(O)c(CBr)c1` as the compound, how does the melting point read?
Its melting point is 145 to 149 °C.

With `Cc1nc([N+](=O)[O-])cn1CCC(N)=NO` as the compound, how does the melting point read?
The melting point was 207 °C.

With `C#CC[C@H](NC(=O)OC(C)(C)C)C(=O)O` as the compound, how does the melting point read?
The melting point was 85.5 °C.
